Key:
[1] = hydrophobic sand humic acid removal test; details: formulation diluted 42 parts water:1 part; 2 ml on 3 g humic acid coated sand; dried 60° C. 24 hours; 10 ml distilled water passed through; absorbance at 620 nm vs humic acid calibration curve
Protocol: Initially, a calibrated stock solution measurement curve for humic acid itself was generated for comparison purposes with tested humic acid removal samples. Thus, a 5000 ppm Humic Acid (purchased from Fluka Chemika) stock solution was prepared by dissolving 0.5 grams of Humic acid in 100 milliliters of water. Further standard solutions were prepared by serial dilution of the 5000 ppm sandard stock solution. The absorbance of each solution was measured at 620 nm on a Beckman Model DU 650 Spectrophotometer and a plot of absorbance versus concentration provided the Humic
The Examples, listed above, both inventive and comparative, were then each individually diluted with water (42 parts water:1 part example formulation). Two milliliters of each diluted example was then placed into the open end of a 19 inch clear plastic tube containing 3 grams of the above specific humic acid coated sand. One end was then plugged by a two-layer cheese cloth square of 1.5×1.5 cm and then the tube was situated vertically with the plugged end lower. The solutions were allowed to pass through the sand and were collected after passing through the plug. The sand was then placed in an oven at 60° C. for 24 hours to remove any residual moisture. The sand (3 grams) was again packed into a 19 inch clear plastic tube plugged at one end with the cheese cloth plug. Ten ml of distilled water was then passed through the sand and collected. The absorbance at 620 nm of the distilled water sample was then measured and compared to the humic acid calibration curve (from the Table, above) to determine the amount of humic acid removed from the coated sand. This test is, for the context of this invention, is the definition of “hydrophobic sand humic acid removal test”.

grass = details: in vivo; cited from earlier work

| Molecule | ppm Removed (Removal of Humic acid from Sand) [1] | phytotoxicity to grass (grass) |
| --- | --- | --- |
| fully neutralized n-octenyl succinic anhydride sulfanilic sodium salt [Example 9] | 1015.15 ppm |  |
| [Na+].[OH-] [sodium hydroxide] |  | highly phytotoxic |
| TPSA Di-TEA Salt [Example 8] | 246.46 ppm |  |
| TPSA Mono-TEA Salt [Example 7] | 872.40 ppm |  |
| TPSA Dipotassium Salt [Example 6] | 837.52 ppm |  |
| O=C([O-])CCCCCCCCC(=O)[O-].[K+].[K+] [Example 4, Potassium sebacate] | 789.78 ppm |  |
